Results reported in DBAASP.
≈ marks a conversion by molar mass, not a printed value. One block for each compound: values may come before it.

Legend:
Test in all cases: ≥ marks a high value that may be exact or a test limit, other limits are often not marked, values filed in µg/mL are converted to µM
[1] = test system: Pseudomonas aeruginosa PAO1
[2] = test system: Staphylococcus aureus ATCC 25923
Escherichia coli BL21AI = test system: Escherichia coli BL21AI
Escherichia coli UB1005 = test system: Escherichia coli UB1005
[3] = test system: Micrococcus luteus ATCC 10240
[4] = test system: Bacillus subtilis ATCC 6051
[5] = test system: Escherichia coli NEB5alpha
[6] = test system: Salmonella enterica subsp. enterica serovar Typhimurium ATCC 14028
[7] = test system: Enterococcus faecalis ATCC 29212
[8] = test system: Staphylococcus aureus ATCC 29213
[9] = test system: Escherichia coli ATCC 25922
[10] = test system: Staphylococcus epidermidis ATCC 12228
[11] = test system: Salmonella enterica subsp. enterica serovar Pullorum C79-13
[12] = test system: Bacillus subtilis CMCC 63501
[13] = test system: Pseudomonas aeruginosa ATCC 27853
[14] = test system: Staphylococcus aureus ATCC 700699
[15] = test system: Klebsiella pneumoniae ATCC 700603
[16] = test system: Staphylococcus aureus ATCC 33591
[17] = test system: Salmonella enterica subsp. enterica serovar Typhimurium C77-31
[18] = test system: Bacillus subtilis ATCC 6633
[19] = test system: Pseudomonas aeruginosa ATCC BAA-427

SMILES: CC[C@H](C)[C@H](NC(=O)[C@H](CCCN=C(N)N)NC(=O)[C@H](CCCN=C(N)N)NC(=O)[C@@H]1CCCN1C(=O)[C@@H]1CCCN1C(=O)[C@H](CCCN=C(N)N)NC(=O)[C@@H]1CCCN1C(=O)[C@H](CCCN=C(N)N)NC(=O)[C@@H]1CCCN1C(=O)[C@H](CC(C)C)NC(=O)[C@H](Cc1ccc(O)cc1)NC(=O)[C@@H]1CCCN1C(=O)[C@@H]1CCCN1C(=O)[C@H](CCCCN)NC(=O)[C@H](CC(=O)O)NC(=O)[C@@H](N)C(C)C)C(=O)N[C@@H](Cc1ccc(O)cc1)C(=O)N[C@@H](CC(N)=O)C(=O)N[C@@H](Cc1cnc[nH]1)C(N)=O [VDKPPYLPRPRPPRRIYNH]
- MIC [1]: 54 µM (≈ 128 µg/mL)
- MIC [2]: 38.2 µM (≈ 90.5 µg/mL)
- MIC (Escherichia coli BL21AI): 6.75 µM (≈ 16 µg/mL)
- MIC (Escherichia coli UB1005): 2.11 µM (≈ 5 µg/mL)
- MIC [3]: 6.75 µM (≈ 16 µg/mL)

SMILES: CC(C)[C@H](NC(=O)[C@H](CCCCN)NC(=O)[C@H](C)NC(=O)[C@H](C)NC(=O)[C@H](C)NC(=O)[C@H](CCCCN)NC(=O)[C@H](C)NC(=O)[C@H](C)NC(=O)[C@H](C)NC(=O)[C@H](CCCCN)NC(=O)[C@@H](NC(=O)[C@@H](N)Cc1c[nH]c2ccccc12)C(C)C)C(=O)N[C@@H](Cc1c[nH]c2ccccc12)C(N)=O [WVKAAAKAAAKVW]
- MIC [6]: > 128 µM
- MIC [7]: 64 µM (≈ 89.5 µg/mL)
- MIC [8]: > 128 µM
- MIC [9]: 32 µM (≈ 44.8 µg/mL)
- MIC [10]: > 128 µM
- MIC (Escherichia coli UB1005): ≥ 128 µM
- MIC [11]: ≥ 64 µM
- MIC [12]: ≥ 128 µM
- MIC [13]: > 128 µM

SMILES: CC(C)C[C@H](NC(=O)[C@H](CCCN=C(N)N)NC(=O)[C@H](CC(C)C)NC(=O)[C@H](CC(C)C)NC(=O)[C@H](CCC(N)=O)NC(=O)[C@H](CCC(=O)O)NC(=O)[C@H](CC(C)C)NC(=O)[C@H](Cc1ccc(O)cc1)NC(=O)CNC(=O)[C@@H](N)CC(C)C)C(=O)O [LGYLEQLLRL]
- MIC [5]: ≥ 1360 µM

SMILES: CC[C@H](C)[C@H](NC(=O)[C@H](C)NC(=O)CNC(=O)[C@H](CCCCN)NC(=O)[C@H](CCC(=O)O)NC(=O)[C@H](CCC(=O)O)NC(=O)[C@H](CC(=O)O)NC(=O)[C@H](CCC(=O)O)NC(=O)[C@H](CC(=O)O)NC(=O)[C@H](CCCN=C(N)N)NC(=O)CNC(=O)[C@H](CCC(N)=O)NC(=O)[C@H](CC(C)C)NC(=O)[C@@H](N)CCCCN)C(=O)N[C@H](C(=O)N[C@@H](CCCCN)C(=O)N[C@H](C(=O)N[C@@H](CCCCN)C(=O)NCC(=O)NCC(=O)N[C@@H](CC(C)C)C(=O)O)C(C)C)C(C)C [KLQGRDEDEEKGAIVKVKGGL]
- MIC [4]: ≥ 1000 µM
- MIC [5]: ≥ 500 µM

SMILES: CC[C@H](C)[C@H](N)C(=O)N[C@@H](CCCN=C(N)N)C(=O)N[C@@H](CS)C(=O)N[C@@H](CCCN=C(N)N)C(=O)N[C@@H](CCCN=C(N)N)C(=O)N[C@@H](CCCN=C(N)N)C(=O)N[C@@H](Cc1ccccc1)C(=O)N[C@@H](CS)C(=O)N[C@@H](CCCN=C(N)N)C(=O)N[C@H](C(N)=O)[C@@H](C)CC [IRCRRRFCRI]
- MIC [7]: 64 µM (≈ 88.2 µg/mL)
- MIC [8]: 64 µM (≈ 88.2 µg/mL)
- MIC [9]: 8 µM (≈ 11 µg/mL)
- MIC [10]: 64 µM (≈ 88.2 µg/mL)
- MIC [11]: 16 µM (≈ 22 µg/mL)
- MIC [17]: ≥ 128 µM
- MIC [12]: 4 µM (≈ 5.51 µg/mL)
- MIC [13]: 64 µM (≈ 88.2 µg/mL)

SMILES: CC[C@H](C)[C@H](NC(=O)[C@H](CC(=O)O)NC(=O)[C@H](CCCCN)NC(=O)[C@H](C)NC(=O)[C@H](C)NC(=O)CNC(=O)[C@H](CCCCN)NC(=O)[C@H](CC(C)C)NC(=O)[C@@H](NC(=O)[C@H](CC(=O)O)NC(=O)[C@@H](NC(=O)[C@@H](NC(=O)CN)C(C)C)C(C)C)[C@@H](C)CC)C(=O)N[C@@H](C)C(=O)NCC(=O)N[C@@H](Cc1cnc[nH]1)C(=O)N[C@@H](CC(C)C)C(=O)N[C@@H](CC(C)C)C(=O)N[C@@H](CO)C(=O)N[C@@H](CCCCN)C(=O)N[C@H](C(=O)N[C@@H](CCSC)C(=O)N[C@@H](CC(N)=O)C(=O)N[C@@H](CCCCN)C(=O)N[C@@H](CC(C)C)C(N)=O)C(C)C [GVVDILKGAAKDIAGHLLSKVMNKL]
- MIC [14]: ≥ 100 µM
- MIC [15]: 50 µM (≈ 130 µg/mL)
- MIC [8]: 100 µM (≈ 259 µg/mL)
- MIC [9]: 12.5 µM (≈ 32.4 µg/mL)
- MIC [16]: 25 µM (≈ 64.8 µg/mL)
- MIC [13]: 100 µM (≈ 259 µg/mL)

Further lines, results first:

- MIC [4]: ≥ 1000 µM
- MIC [5]: ≥ 1000 µM
SMILES: CC[C@H](C)[C@H](NC(=O)[C@H](C)NC(=O)CNC(=O)[C@H](CCCCN)NC(=O)[C@H](CCC(=O)O)NC(=O)[C@H](CCC(=O)O)NC(=O)[C@H](CC(=O)O)NC(=O)[C@H](CCC(=O)O)NC(=O)[C@H](CC(N)=O)NC(=O)[C@H](CCCN=C(N)N)NC(=O)CNC(=O)[C@H](CCC(N)=O)NC(=O)[C@H](CC(C)C)NC(=O)[C@@H](N)CCCCN)C(=O)N[C@H](C(=O)N[C@@H](CCCCN)C(=O)N[C@H](C(=O)N[C@@H](CCCCN)C(=O)NCC(=O)NCC(=O)N[C@@H](CC(C)C)C(=O)O)C(C)C)C(C)C [KLQGRNEDEEKGAIVKVKGGL]

- MIC [14]: ≥ 100 µM
- MIC [15]: 100 µM (≈ 251 µg/mL)
- MIC [8]: > 100 µM
- MIC [9]: 50 µM (≈ 125 µg/mL)
- MIC [16]: ≥ 100 µM
- MIC [13]: > 100 µM
SMILES: CC[C@H](C)[C@H](NC(=O)[C@H](CC(=O)O)NC(=O)[C@H](CCCCN)NC(=O)[C@H](C)NC(=O)[C@H](C)NC(=O)CNC(=O)[C@H](CCCCN)NC(=O)[C@H](CC(C)C)NC(=O)[C@@H](NC(=O)[C@H](CC(=O)O)NC(=O)[C@@H](NC(=O)[C@@H](NC(=O)CN)C(C)C)C(C)C)[C@@H](C)CC)C(=O)N[C@@H](C)C(=O)NCC(=O)N[C@@H](Cc1cnc[nH]1)C(=O)N[C@@H](CC(C)C)C(=O)N[C@@H](C)C(=O)N[C@@H](CO)C(=O)N[C@@H](CCCCN)C(=O)N[C@H](C(=O)N[C@@H](CCSC)C(=O)N[C@@H](C)C(=O)N[C@@H](CCCCN)C(=O)N[C@@H](CC(C)C)C(N)=O)C(C)C [GVVDILKGAAKDIAGHLASKVMAKL]

- MIC [7]: 2 µM (≈ 4.42 µg/mL)
- MIC [8]: 4 µM (≈ 8.83 µg/mL)
- MIC [9]: 4 µM (≈ 8.83 µg/mL)
- MIC [10]: 2 µM (≈ 4.42 µg/mL)
- MIC [11]: 2 µM (≈ 4.42 µg/mL)
- MIC [17]: 4 µM (≈ 8.83 µg/mL)
- MIC [12]: 1 µM (≈ 2.21 µg/mL)
- MIC [13]: 8 µM (≈ 17.7 µg/mL)
SMILES: NC(=O)[C@H](Cc1c[nH]c2ccccc12)NC(=O)[C@H](CCCN=C(N)N)NC(=O)[C@H](Cc1c[nH]c2ccccc12)NC(=O)[C@H](CCCN=C(N)N)NC(=O)[C@H](CS)NC(=O)[C@H](Cc1ccccc1)NC(=O)[C@H](CCCN=C(N)N)NC(=O)[C@H](CCCN=C(N)N)NC(=O)[C@H](CCCN=C(N)N)NC(=O)[C@H](CS)NC(=O)[C@H](CCCN=C(N)N)NC(=O)[C@H](Cc1c[nH]c2ccccc12)NC(=O)[C@H](CCCN=C(N)N)NC(=O)[C@@H](N)Cc1c[nH]c2ccccc12 [WRWRCRRRFCRWRW]

- MIC [18]: 10 µM (≈ 17.4 µg/mL)
- MIC [9]: 10 µM (≈ 17.4 µg/mL)
- MIC [2]: 8 µM (≈ 13.9 µg/mL)
- MIC [19]: 10 µM (≈ 17.4 µg/mL)
SMILES: CC(C)C[C@H](NC(=O)[C@H](CC(=O)O)NC(=O)[C@H](CC(C)C)NC(=O)[C@H](CCCCN)NC(=O)[C@H](CC(C)C)NC(=O)[C@H](CC(=O)O)NC(=O)[C@H](CC(C)C)NC(=O)[C@H](CCCCN)NC(=O)[C@H](CC(C)C)NC(=O)[C@H](CC(=O)O)NC(=O)[C@H](CC(C)C)NC(=O)[C@H](CCCCN)NC(=O)[C@H](CCCN=C(N)N)NC(=O)[C@@H](N)CCCN=C(N)N)C(=O)O [RRKLDLKLDLKLDL]

- MIC [14]: ≥ 100 µM
- MIC [15]: > 100 µM
- MIC [8]: > 100 µM
- MIC [9]: > 100 µM
- MIC [16]: ≥ 100 µM
- MIC [13]: > 100 µM
SMILES: CC[C@H](C)[C@H](NC(=O)[C@H](CC(=O)O)NC(=O)[C@H](CCCCN)NC(=O)[C@H](C)NC(=O)[C@H](C)NC(=O)CNC(=O)[C@H](CCCCN)NC(=O)[C@H](CC(C)C)NC(=O)[C@@H](NC(=O)[C@H](CC(=O)O)NC(=O)[C@@H](NC(=O)[C@@H](NC(=O)CN)C(C)C)C(C)C)[C@@H](C)CC)C(=O)N[C@@H](C)C(=O)NCC(=O)N[C@@H](Cc1cnc[nH]1)C(=O)N[C@@H](CC(C)C)C(=O)N[C@@H](C)C(=O)N[C@@H](CO)C(=O)N[C@@H](CCCCN)C(=O)N[C@H](C(=O)N[C@@H](CCSC)C(=O)N[C@@H](CC(N)=O)C(=O)N[C@@H](CCCCN)C(=O)N[C@@H](C)C(N)=O)C(C)C [GVVDILKGAAKDIAGHLASKVMNKA]

- MIC [18]: 30 µM (≈ 47.5 µg/mL)
- MIC [9]: 30 µM (≈ 47.5 µg/mL)
- MIC [2]: 25 µM (≈ 39.6 µg/mL)
- MIC [19]: ≥ 42 µM
SMILES: CC(C)C[C@H](NC(=O)[C@H](CC(=O)O)NC(=O)[C@H](CC(C)C)NC(=O)[C@H](CCCCN)NC(=O)[C@H](CC(C)C)NC(=O)[C@H](CC(=O)O)NC(=O)[C@H](CC(C)C)NC(=O)[C@H](CCCCN)NC(=O)[C@H](CC(C)C)NC(=O)[C@H](CC(=O)O)NC(=O)[C@H](CC(C)C)NC(=O)[C@H](CCCCN)NC(=O)[C@@H](N)CCCN=C(N)N)C(=O)O [RKLDLKLDLKLDL]
